Like-named read-outs stand apart in the source and are kept apart here.

This is an account of results in US8759361B2, “2-phenoxy pyrimidinone analogues” (Neurogen Corporation, priority 2006, dated 2014).

One experiment deals with VR (Homo sapiens, UniProt Q8NER1). The note with it: binds to VR with no more than moderate affinity; cited from earlier work.
The target in another experiment is T1, human capsaicin receptor (Homo sapiens, UniProt Q8NER1).
T1 construct: expressed in transfected cells
T1 sequence (Q8NER1 whole entry): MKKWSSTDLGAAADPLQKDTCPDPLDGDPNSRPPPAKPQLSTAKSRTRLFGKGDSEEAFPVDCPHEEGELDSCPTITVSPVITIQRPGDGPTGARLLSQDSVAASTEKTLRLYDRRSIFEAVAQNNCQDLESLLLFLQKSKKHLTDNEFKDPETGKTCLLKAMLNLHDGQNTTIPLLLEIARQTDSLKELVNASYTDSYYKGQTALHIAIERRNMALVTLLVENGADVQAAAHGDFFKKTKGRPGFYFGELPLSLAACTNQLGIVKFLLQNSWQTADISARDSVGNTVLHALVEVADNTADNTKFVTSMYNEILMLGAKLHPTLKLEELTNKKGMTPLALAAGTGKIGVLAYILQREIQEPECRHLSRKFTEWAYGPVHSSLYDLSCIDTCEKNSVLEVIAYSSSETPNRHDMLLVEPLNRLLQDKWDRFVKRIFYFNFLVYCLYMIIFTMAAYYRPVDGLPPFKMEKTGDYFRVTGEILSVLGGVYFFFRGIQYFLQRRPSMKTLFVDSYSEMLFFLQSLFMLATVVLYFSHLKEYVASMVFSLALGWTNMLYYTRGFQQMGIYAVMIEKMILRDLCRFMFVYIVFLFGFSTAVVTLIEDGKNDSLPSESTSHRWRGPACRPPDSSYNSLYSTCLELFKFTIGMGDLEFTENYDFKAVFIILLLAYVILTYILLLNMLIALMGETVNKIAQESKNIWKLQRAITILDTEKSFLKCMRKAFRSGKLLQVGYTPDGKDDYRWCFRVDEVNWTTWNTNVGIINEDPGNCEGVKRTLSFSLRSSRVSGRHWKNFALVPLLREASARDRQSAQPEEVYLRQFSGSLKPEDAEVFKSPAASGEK
In words: Calcium mobilization assay, determination of antagonist activity (Example 6). The note with it: cells expressing human capsaicin receptor, capsaicin-induced fluorescence response. It counts as cell-based. How it is done: A cDNA encoding full length human capsaicin receptor (SEQ ID NO:1, 2 or 3 of U.S. Pat. No. 6,482,611) is subcloned in the plasmid pBK-CMV (Stratagene, La Jolla, Calif.) for recombinant expression in mammalian cells.
Human embryonic kidney (HEK293) cells are transfected with the pBK-CMV expression construct encoding the full length human capsaicin receptor using standard methods. The transfected cells are selected for two weeks in media containing G418 (400 μg/ml) to obtain a pool of stably transfected cells. Independent clones are isolated from this pool by limiting dilution to obtain clonal stable cell lines for use in subsequent experiments.
Cells transfected with expression plasmids (as described in Example 4) and thereby expressing human capsaicin receptor are seeded and grown to 70-90% confluency in FALCON black-walled, clear-bottomed 96-well plates (#3904, BECTON-DICKINSON, Franklin Lakes, N.J.). The culture medium is emptied from the 96 well plates and FLUO-3 AM calcium sensitive dye (Molecular Probes, Eugene, Oreg.) is added to each well (dye solution: 1 mg FLUO-3 AM, 440 μL DMSO and 440 μl 20% pluronic acid in DMSO, diluted 1:250 in Krebs-Ringer HEPES (KRH) buffer (25 mM HEPES, 5 mM KCl, 0.96 mM NaH2PO4, 1 mM MgSO4, 2 mM CaCl2, 5 mM glucose, 1 mM probenecid, pH 7.4), 50 μl diluted solution per well). Plates are covered with aluminum foil and incubated at 37° C. for 1-2 hours in an environment containing 5% CO2. After the incubation, the dye is emptied from the plates, and the cells are washed once with KRH buffer, and resuspended in KRH buffer.
To measure the ability of a test compound to agonize or antagonize a calcium mobilization response in cells expressing capsaicin receptors to capsaicin or other vanilloid agonist, the EC50 of the agonist capsaicin is first determined. An additional 20 μl of KRH buffer and 1 μl DMSO is added to each well of cells, prepared as described above. 100 μl capsaicin in KRH buffer is automatically transferred by the FLIPR instrument to each well. Capsaicin-induced calcium mobilization is monitored using either FLUOROSKAN ASCENT (Labsystems; Franklin, Mass.) or FLIPR (fluorometric imaging plate reader system; Molecular Devices, Sunnyvale, Calif.) instruments. Data obtained between 30 and 60 seconds after agonist application are used to generate an 8-point concentration response curve, with final capsaicin concentrations of 1 nM to 3 μM. KALEIDAGRAPH software (Synergy Software, Reading, Pa.) is used to fit the data to the equation: y=a*(1/(1+(b/x)^c)) to determine the 50% excitatory concentration (EC50) for the response. In this equation, y is the maximum fluorescence signal, x is the concentration of the agonist or antagonist (in this case, capsaicin), a is the Emax, b corresponds to the EC50 value and c is the Hill coefficient. Determination of Agonist Activity
Test compounds are dissolved in DMSO, diluted in 20 μl KRH buffer so that the final concentration of test compounds in the assay well is between 1 μM and 5 μM, and added to cells prepared as described above. The 96 well plates containing prepared cells and test compounds are incubated in the dark, at room temperature for 0.5 to 6 hours. It is important that the incubation not continue beyond 6 hours. Just prior to determining the fluorescence response, 100 μl capsaicin in KRH buffer at twice the EC50 concentration determined as described above is automatically added by the FLIPR instrument to each well of the 96 well plate for a final sample volume of 200 μl and a final capsaicin concentration equal to the EC50. The final concentration of test compounds in the assay wells is between 1 μM and 5 μM. […] The concentration of antagonist required to provide a 50% decrease, relative to the response observed in the presence of capsaicin and without antagonist, is the IC50 for the antagonist, and is preferably below 1 micromolar, 100 nanomolar, 10 nanomolar or 1 nanomolar.

VR, sequence (Q8NER1 whole entry): as above

The term Ki denotes the equilibrium dissociation constant of an inhibitor or competing ligand from its target. Consider `Cl.Cl.Cl.Cl.Cl.Cl.N.N.N.N.N.N.N.N.N.N.N.N.N.N.[O-2].[O-2].[Ru+3].[Ru+3].[Ru+4]` [ruthenium red], for which, at VR, the Ki is no less than 140000 nM.

By IC50 is commonly meant the midpoint of a concentration-inhibition curve. Turning to `Cc1csc2c(=O)n(-c3ccc(Cl)cc3)c(Oc3ccc(F)c(F)c3F)nc12` [Compound 50, 3-(4-chlorophenyl)-7-methyl-2-(2,3,4-trifluorophenoxy)thieno[3,2-d]pyrimidin-4(3H)-one], the IC50 on human capsaicin receptor (read-out: IC50) was no more than 100 nM.

As to `Cn1cnc2c(=O)n(-c3ccc(Cl)cc3)c(Oc3ccc(F)cc3Cl)nc21` [Compound 23, 2-(2-chloro-4-fluorophenoxy)-1-(4-chlorophenyl)-9-methyl-1,9-dihydro-6H-purin-6-one], at human capsaicin receptor (read-out: IC50), the IC50 is no more than 100 nM.

With `Cc1csc2c(=O)n(-c3ccc(F)cc3)c(Oc3c(F)ccc(F)c3F)nc12` [Compound 55, 3-(4-fluorophenyl)-7-methyl-2-(2,3,6-trifluorophenoxy)thieno[3,2-d]pyrimidin-4(3H)-one], the IC50 on human capsaicin receptor (read-out: IC50) was no more than 100 nM.

Turning to `Cc1csc2c(=O)n(-c3ccc(Cl)cc3)c(Oc3ccc(F)cc3F)nc12` [Compound 52, 3-(4-chlorophenyl)-2-(2,4-difluorophenoxy)-7-methylthieno[3,2-d]pyrimidin-4(3H)-one], the IC50 at human capsaicin receptor (read-out: IC50) is no more than 100 nM.

Take `Cn1cnc2c(=O)n(-c3ccc(Cl)cc3)c(Oc3c(F)ccc(F)c3F)nc21` [Compound 25, 1-(4-chlorophenyl)-9-methyl-2-(2,3,6-trifluorophenoxy)-1,9-dihydro-6H-purin-6-one]: the IC50 at human capsaicin receptor (read-out: IC50) is no more than 100 nM.

`Cc1csc2c(=O)n(-c3ccc(Cl)cc3)c(Oc3ccc(Cl)cc3F)nc12` [Compound 51, 2-(4-chloro-2-fluorophenoxy)-3-(4-chlorophenyl)-7-methylthieno[3,2-d]pyrimidin-4(3H)-one]: the IC50 on human capsaicin receptor (read-out: IC50) was no more than 100 nM.

On to `O=c1c2ncsc2nc(Oc2ccc(Cl)cc2F)n1-c1ccc(F)cc1` [Compound 38, 5-(4-chloro-2-fluorophenoxy)-6-(4-fluorophenyl)[1,3]thiazolo[5,4-d]pyrimidin-7(6H)-one], for which the IC50 at human capsaicin receptor (read-out: IC50) was no more than 100 nM.

For the compound `O=c1c2ncsc2nc(Oc2cccc(C(F)(F)F)c2)n1-c1ccc(F)cc1` [Compound 46, 6-(4-fluorophenyl)-5-(3-(trifluoromethyl)phenoxy)thiazolo[5,4-d]pyrimidin-7(6H)-one], on human capsaicin receptor (read-out: IC50), the IC50 was no more than 100 nM.

Consider `Cn1cnc2c(=O)n(-c3ccc(F)cc3)c(Oc3ccc(C#N)c(F)c3F)nc21` [Compound 29, 2,3-difluoro-4-{[1-(4-fluorophenyl)-9-methyl-6-oxo-6,9-dihydro-1H-purin-2-yl]oxy}benzonitrile], for which, at human capsaicin receptor (read-out: IC50), the IC50 is no more than 100 nM.

With `Cn1cnc2c(=O)n(-c3ccc(C#N)nc3)c(Oc3cc(F)c(F)c(F)c3)nc21` [Compound 7, 5-(9-Methyl-6-oxo-2-(3,4,5-trifluorophenoxy)-6H-purin-1(9H)-yl)picolinonitrile], the IC50 on human capsaicin receptor (read-out: IC50 determined as described in Example 6) was no more than 100 nM.

In the case of `Cn1cnc2c(=O)n(-c3ccc(Cl)cc3)c(Oc3c(F)cc(F)cc3F)nc21` [Compound 8, 1-(4-chlorophenyl)-9-methyl-2-(2,4,6-trifluorophenoxy)-1,9-dihydro-6H-purin-6-one], the IC50 on human capsaicin receptor (read-out: IC50) is no more than 100 nM.

As to `Cn1cnc2c(=O)n(-c3ccc(Cl)cc3)c(Oc3cc(F)c(F)c(F)c3)nc21` [Compound 30, 1-(4-chlorophenyl)-9-methyl-2-(3,4,5-trifluorophenoxy)-1,9-dihydro-6H-purin-6-one], the IC50 on human capsaicin receptor (read-out: IC50) is no more than 100 nM.
